Reference: ChEMBL document CHEMBL1201862, “PubChem BioAssay data set” (2004)
Active and inactive are the calls of the source.

Key:
[1] = cytotoxicity toward NIH3T3 fibroblasts, dose response, counter-screen, cell-based, ATP luminescence, mouse fibroblasts (AID 2010); format: functional;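 further: cells exposed to compound for about 90 hours before reading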
cells = format: functional
[2] = inhibitors of intracellular T. cruzi replication, confirmation, NIH3T3 host cells, beta-gal luminescence (AID 2044); format: functional, cell-based;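 further: intracellular parasites grown in NIH/3T3 mouse fibroblasts as host cells; luminescent beta-galactosidase reporter signal from transgenic T. cruzi replicating inside host cells; inhibitors lower the luminescence signal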
[3] = THP-1 cell cytotoxicity, dose response, cytotoxicity control for non-replicating M. tuberculosis project (AID 489025); format: functional
[4] = HepG2 cell cytotoxicity, dose response, cytotoxicity control for non-replicating M. tuberculosis project (AID 489018); format: functional; details: Mycobacterium tuberculosis
[5] = Vero E6 cell cytotoxicity, dose response, cytotoxicity control for non-replicating M. tuberculosis project, secondary assay (AID 492998); format: functional, VeroE6; details: Vero C1008
[6] = molecular target: Voltage-dependent T-type calcium channel subunit alpha-1H (Homo sapiens, UniProt O95180); format: functional;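 further: channel activity triggered by adding a high calcium stimulation buffer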
Chain of Voltage-dependent T-type calcium channel subunit alpha-1H (O95180 whole entry): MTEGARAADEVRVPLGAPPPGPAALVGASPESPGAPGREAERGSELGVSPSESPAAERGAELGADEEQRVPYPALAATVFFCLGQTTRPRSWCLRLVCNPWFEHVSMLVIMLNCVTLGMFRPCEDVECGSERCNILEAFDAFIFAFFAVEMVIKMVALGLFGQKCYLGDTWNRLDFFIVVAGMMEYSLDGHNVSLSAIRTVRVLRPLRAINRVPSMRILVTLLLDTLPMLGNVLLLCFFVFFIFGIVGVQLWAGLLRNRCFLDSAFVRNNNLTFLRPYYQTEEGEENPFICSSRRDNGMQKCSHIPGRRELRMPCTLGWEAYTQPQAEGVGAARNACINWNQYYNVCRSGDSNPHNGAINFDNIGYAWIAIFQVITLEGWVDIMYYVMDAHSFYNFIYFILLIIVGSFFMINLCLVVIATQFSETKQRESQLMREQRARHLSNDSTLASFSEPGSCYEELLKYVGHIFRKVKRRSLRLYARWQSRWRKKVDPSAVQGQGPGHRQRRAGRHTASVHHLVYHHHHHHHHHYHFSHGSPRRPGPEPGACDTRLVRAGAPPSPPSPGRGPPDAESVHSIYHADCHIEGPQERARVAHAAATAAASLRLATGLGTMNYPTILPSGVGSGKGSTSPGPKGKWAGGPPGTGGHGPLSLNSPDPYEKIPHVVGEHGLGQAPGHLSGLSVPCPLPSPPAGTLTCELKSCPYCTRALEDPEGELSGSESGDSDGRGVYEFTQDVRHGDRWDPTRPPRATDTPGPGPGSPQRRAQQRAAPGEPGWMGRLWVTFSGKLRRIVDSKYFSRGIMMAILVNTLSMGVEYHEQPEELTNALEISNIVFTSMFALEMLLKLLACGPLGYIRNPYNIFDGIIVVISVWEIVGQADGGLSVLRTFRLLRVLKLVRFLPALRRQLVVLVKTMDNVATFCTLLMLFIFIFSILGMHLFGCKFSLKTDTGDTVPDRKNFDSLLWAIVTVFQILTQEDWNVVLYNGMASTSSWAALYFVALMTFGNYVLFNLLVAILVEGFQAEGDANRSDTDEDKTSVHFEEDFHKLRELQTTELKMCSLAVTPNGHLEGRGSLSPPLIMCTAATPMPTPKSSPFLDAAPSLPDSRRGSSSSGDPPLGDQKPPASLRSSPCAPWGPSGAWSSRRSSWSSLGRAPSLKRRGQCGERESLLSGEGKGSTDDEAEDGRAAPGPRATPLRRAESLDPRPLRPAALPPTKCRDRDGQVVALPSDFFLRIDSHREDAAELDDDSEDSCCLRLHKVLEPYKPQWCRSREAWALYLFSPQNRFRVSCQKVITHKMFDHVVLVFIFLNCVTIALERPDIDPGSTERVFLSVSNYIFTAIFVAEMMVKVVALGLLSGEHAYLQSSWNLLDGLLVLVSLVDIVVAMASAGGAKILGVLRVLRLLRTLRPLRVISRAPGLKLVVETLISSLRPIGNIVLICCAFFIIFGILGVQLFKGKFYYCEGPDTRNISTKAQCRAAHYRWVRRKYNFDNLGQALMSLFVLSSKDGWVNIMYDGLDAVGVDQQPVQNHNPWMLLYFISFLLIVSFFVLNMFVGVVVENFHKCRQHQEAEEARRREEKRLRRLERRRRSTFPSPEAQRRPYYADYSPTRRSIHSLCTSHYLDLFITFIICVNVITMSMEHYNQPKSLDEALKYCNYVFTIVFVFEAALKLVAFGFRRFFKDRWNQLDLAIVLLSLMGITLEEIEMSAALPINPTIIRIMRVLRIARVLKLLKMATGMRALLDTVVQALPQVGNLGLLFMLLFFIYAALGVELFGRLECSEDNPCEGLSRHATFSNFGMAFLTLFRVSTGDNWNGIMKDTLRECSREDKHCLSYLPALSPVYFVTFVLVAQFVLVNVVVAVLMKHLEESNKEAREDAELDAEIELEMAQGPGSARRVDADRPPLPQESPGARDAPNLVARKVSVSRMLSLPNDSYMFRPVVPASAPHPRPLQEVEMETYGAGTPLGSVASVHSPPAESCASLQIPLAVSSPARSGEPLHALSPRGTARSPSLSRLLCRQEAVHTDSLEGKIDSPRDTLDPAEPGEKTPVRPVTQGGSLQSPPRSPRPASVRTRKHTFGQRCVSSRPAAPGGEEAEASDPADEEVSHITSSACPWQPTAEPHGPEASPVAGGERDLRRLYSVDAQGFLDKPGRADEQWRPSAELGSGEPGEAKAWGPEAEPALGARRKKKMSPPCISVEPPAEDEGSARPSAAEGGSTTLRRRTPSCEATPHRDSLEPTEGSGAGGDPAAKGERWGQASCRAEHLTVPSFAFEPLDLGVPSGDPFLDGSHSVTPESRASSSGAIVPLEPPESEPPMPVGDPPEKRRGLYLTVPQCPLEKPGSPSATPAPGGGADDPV

[7] = growth suppression of beta-catenin-knockout colon cells, dose response, cell-based, HCT116, human colon tumor (AID 1045); format: functional;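 further: HCT116 colon tumor cells with beta catenin knocked out; cells exposed to compound for 60 hours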
[8] = HepG2 cell cytotoxicity, dose response, cytotoxicity control for Shn3 inhibitor project, CellTiter-Glo, cherry-picked (AID 624134); format: functional, cell-based
BJ [9] = assay: cells; format: functional, cell-based; details: Homo sapiens
[10] = cytotoxicity toward DRD oncogenic fibroblasts, dose response, cell-based, non-viral oncogenic, luminescence (AID 1934); format: functional; details: Homo sapiens
BJ [11] = assay: cytotoxicity toward BJ-TERT fibroblasts, dose response, cell-based, RAS-independent, luminescence (AID 1933); format: functional; details: Homo sapiens
[12] = growth suppression of PTEN-null colon cells, dose response, cell-based, HCT116 PTEN knockout (AID 1047); format: functional;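 further: HCT116 colon tumor cells with PTEN knocked out; cells exposed to compound for 60 hours before readout; potency for loss of cell viability measured by luminescence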
BJ [13] = assay: cytotoxicity toward BJ-TERT-LT-ST fibroblasts, dose response, cell-based, RAS-independent, luminescence (AID 1935); format: functional; details: Homo sapiens;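 further: BJ fibroblasts immortalized with TERT plus LT and ST oncogenes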
[14] = cytotoxicity in HEK-293T cells, dose response, cytotoxicity control for BCR NF-kB inhibitor project, luminescence, B-cell screen hits (AID 489021); format: functional, cell-based;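 further: HEK-293T cells carrying an NF-kB luciferase reporter; cells exposed to compound for about 14 hours before viability readout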
[15] = Shn3 3'UTR reporter inhibitors, dose response, cell-based, Clone20 osteoblasts, firefly luciferase, cherry-picked (AID 624132); format: functional;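 further: firefly luciferase luminescence from reporter carrying the Shn3 3'UTR in osteoblasts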
[16] = control 3'UTR Renilla luciferase suppression, dose response, counter-screen for Shn3 inhibitor project, cell-based, Clone20-Shn3RL, cherry-picked (AID 624133); format: functional
[17] = molecular target: T1, Microphthalmia-associated transcription factor (Homo sapiens, UniProt O75030); assay: TRPM1 promoter luciferase signal decrease, dose response, MITF inhibitor project, cell-based, SK-MEL-5, cherry-picked, set 3 (AID 493073); format: functional
T1 sequence (O75030 whole entry): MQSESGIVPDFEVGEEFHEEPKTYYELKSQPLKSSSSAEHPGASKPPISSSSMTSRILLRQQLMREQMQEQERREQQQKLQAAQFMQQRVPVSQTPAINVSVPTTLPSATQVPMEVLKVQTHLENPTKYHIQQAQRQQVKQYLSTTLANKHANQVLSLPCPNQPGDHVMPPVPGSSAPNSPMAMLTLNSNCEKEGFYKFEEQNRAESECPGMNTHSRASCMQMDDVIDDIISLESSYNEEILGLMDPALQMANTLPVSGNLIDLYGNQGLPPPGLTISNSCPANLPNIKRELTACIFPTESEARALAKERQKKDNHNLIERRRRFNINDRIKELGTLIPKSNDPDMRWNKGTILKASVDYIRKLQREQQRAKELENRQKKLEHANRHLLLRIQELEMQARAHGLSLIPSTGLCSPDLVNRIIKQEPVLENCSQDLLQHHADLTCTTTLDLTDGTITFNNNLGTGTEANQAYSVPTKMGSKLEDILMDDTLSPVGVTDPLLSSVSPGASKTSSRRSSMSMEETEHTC

Protein skinhead-1 = molecular target: T2, Protein skinhead-1 (Caenorhabditis elegans, UniProt P34707); format: functional
T2 sequence (P34707 whole entry): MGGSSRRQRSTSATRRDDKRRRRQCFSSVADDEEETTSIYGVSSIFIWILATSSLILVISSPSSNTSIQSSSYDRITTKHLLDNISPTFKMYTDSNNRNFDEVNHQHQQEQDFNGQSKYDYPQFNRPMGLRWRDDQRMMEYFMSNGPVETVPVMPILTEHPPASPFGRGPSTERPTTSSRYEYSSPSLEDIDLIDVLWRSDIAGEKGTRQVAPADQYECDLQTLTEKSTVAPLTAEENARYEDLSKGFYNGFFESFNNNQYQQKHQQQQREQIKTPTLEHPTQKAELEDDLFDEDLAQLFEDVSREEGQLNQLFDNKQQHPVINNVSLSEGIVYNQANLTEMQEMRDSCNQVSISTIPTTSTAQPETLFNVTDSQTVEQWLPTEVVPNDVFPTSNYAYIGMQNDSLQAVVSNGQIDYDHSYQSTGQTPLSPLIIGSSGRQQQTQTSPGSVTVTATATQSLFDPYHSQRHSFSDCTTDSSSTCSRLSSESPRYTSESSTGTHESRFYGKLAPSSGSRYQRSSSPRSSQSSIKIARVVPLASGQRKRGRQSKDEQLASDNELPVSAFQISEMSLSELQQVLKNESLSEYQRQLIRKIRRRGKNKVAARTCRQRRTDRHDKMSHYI

[18] = microbe, parasite or virus in culture; format: functional; details: Mycobacterium tuberculosis
Mucolipin-3 = molecular target: T3, Mucolipin-3 (Homo sapiens, UniProt Q8TDD5); assay: Fluorescence counterscreen assay for […] agonists: dose response cell-based high-throughput screening assay to identify agonists of the transient receptor potential channel ML3 (TRPML3). [Related pubchem assays: 1424, 1448 ]; format: functional
T3 sequence (Q8TDD5 whole entry): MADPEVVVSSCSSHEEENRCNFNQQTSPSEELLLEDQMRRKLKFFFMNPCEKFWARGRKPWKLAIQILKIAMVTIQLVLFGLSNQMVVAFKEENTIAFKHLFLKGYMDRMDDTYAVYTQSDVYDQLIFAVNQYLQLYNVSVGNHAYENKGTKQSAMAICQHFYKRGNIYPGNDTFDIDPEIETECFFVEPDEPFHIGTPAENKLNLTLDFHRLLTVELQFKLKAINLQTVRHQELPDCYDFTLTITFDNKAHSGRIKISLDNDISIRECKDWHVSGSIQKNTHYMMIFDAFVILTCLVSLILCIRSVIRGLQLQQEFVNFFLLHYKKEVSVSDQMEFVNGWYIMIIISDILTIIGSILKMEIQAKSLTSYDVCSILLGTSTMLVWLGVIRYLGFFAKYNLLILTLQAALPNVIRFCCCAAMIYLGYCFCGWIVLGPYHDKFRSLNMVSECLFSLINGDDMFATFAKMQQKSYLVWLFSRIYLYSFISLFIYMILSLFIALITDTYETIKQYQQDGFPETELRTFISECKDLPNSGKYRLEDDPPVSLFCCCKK

Ion channel NompC = Ion channel NompC (Danio rerio, UniProt Q7T1G6); assay: Dose response cell-based high-throughput screening assay for agonists of the transient receptor potential channel N1 (TRPN1). [Related pubchem assays (depositor defined):AID1424, AID1448]; format: functional
Chain of Ion channel NompC (Q7T1G6 whole entry): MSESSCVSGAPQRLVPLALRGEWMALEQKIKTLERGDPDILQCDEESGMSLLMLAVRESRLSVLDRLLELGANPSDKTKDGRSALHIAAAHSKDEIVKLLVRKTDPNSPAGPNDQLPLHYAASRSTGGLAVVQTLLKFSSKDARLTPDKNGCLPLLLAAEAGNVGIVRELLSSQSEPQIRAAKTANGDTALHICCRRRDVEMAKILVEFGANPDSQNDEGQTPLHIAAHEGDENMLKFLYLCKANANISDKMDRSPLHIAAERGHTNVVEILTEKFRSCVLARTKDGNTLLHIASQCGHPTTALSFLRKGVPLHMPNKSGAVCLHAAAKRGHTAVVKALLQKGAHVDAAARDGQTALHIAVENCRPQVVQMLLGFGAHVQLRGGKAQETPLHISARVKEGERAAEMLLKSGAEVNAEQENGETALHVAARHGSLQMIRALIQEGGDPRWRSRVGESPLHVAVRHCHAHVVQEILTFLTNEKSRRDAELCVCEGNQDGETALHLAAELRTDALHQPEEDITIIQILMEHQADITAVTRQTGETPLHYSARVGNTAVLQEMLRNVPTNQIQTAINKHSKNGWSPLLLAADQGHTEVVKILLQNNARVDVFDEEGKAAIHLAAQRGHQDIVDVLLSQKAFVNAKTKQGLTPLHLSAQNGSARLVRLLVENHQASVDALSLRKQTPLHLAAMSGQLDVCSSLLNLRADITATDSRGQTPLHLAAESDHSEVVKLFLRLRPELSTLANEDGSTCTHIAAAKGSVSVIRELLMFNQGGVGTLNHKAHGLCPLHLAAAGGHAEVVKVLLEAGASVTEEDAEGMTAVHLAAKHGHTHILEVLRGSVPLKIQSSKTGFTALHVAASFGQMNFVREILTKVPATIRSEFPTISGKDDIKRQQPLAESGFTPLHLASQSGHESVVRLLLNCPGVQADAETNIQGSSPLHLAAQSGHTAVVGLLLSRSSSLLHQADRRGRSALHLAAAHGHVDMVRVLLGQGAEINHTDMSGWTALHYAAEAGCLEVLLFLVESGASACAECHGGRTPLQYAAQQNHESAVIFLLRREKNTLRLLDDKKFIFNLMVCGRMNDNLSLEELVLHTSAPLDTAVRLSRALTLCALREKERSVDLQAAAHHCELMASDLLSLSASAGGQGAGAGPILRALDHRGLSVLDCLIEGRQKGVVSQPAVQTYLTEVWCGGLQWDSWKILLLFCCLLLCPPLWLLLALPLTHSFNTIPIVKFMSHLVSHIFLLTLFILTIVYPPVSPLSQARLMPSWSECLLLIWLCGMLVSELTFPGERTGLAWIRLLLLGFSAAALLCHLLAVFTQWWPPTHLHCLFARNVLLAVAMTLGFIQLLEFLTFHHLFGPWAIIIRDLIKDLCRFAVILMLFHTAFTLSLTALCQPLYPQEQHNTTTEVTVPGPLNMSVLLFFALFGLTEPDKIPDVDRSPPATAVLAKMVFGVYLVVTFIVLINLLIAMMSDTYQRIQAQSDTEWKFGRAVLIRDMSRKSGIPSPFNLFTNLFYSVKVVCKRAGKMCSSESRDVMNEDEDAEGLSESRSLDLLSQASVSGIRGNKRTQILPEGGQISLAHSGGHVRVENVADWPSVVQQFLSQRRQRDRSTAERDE

CCCCN(CC)S(=O)(=O)c1ccc(C(=O)Nc2nnc(-c3cccs3)o2)cc1
EC50 [1]: 5.48 µM (active) | IC50 (cells): 4.66 µM (active) | EC50 [2]: 1.22 µM (active) | CC50 [3]: 3.18 µM (active) | CC50 [4]: 9.5 µM (active) | CC50 [5]: 4.23 µM (active) | EC50 [6]: 2.67 µM (active)

COc1ccc(C(C(=O)NC2CCCCC2)N(C(=O)CCl)c2ccc(OC)cc2)cc1 (stereo not drawn)
EC50 [7]: 0.721 µM (active) | AC50 [8]: > 70 µM (inactive) | EC50 (BJ [9]): 5.19 µM (active) | EC50 [10]: 1.26 µM (active) | EC50 (BJ [11]): 1.15 µM (inconclusive) | EC50 [12]: 0.959 µM (active) | EC50 (BJ [13]): 8.28 µM (inconclusive) | IC50 [14]: > 80 µM (inactive) | AC50 [15]: 5.56 µM (active) | AC50 [16]: 14.8 µM (active) | AC50 [17]: 9.27 µM (active)

CCCC(NCC(O)COc1ccc(-c2ccccc2)cc1)c1ccccc1 (stereo not drawn)
EC50 [1]: 17.6 µM (active) | IC50 (cells): 12 µM (active) | IC50 (Protein skinhead-1): > 100 µM (inactive) | EC50 [2]: 2.1 µM (active) | CC50 [3]: 15.7 µM (active) | CC50 [4]: > 20 µM (active) | CC50 [18]: 12.6 µM (active) | CC50 [5]: 12.7 µM (active)

O=C(O)c1cc2c(cc1Br)OCCCO2
EC50 (Mucolipin-3): > 29.9 µM (not active) | EC50 (Ion channel NompC): > 29.9 µM (inactive)
